Measurements reported in patent US20230174523A1, “BENZENESULFONAMIDE DERIVATIVES AS TRAP1 MODULATORS AND USES THEREOF” (Amathus Therapeutics, Inc., priority 2020, published 2023).

Molecular target: T1, TRAP1 enzyme (Homo sapiens, UniProt Q12931)
T1 sequence (Q12931 60-704): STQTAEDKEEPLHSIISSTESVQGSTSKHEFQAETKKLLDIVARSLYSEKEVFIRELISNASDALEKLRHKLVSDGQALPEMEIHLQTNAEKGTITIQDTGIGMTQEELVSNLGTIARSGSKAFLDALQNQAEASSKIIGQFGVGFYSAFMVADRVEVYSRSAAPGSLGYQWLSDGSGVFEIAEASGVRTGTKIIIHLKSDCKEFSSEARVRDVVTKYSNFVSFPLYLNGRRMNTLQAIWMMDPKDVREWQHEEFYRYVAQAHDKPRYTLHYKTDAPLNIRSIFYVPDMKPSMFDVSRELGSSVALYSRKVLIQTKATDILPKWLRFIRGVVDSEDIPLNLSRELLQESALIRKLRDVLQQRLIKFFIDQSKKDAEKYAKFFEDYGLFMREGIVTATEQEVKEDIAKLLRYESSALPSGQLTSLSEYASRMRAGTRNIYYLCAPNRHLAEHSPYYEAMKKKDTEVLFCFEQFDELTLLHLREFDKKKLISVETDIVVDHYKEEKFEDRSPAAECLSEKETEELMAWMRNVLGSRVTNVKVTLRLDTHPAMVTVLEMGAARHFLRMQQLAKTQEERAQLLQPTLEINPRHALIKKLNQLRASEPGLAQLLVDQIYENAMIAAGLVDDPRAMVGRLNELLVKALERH
Assay: ADP Glo assay of TRAP1 ATPase activity
Type: biochemical
Settings: for EC50: TRAP1 ATPase activation, 150 nM Trap1, 20 μM ATP, geometric mean, read-out: ADP GLO DRC: GeoMean EC50; for Emax: read-out: ADP GLO DRC: Mean Emax
Method in brief: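 150 nM TRAP1 preincubated with compound (0.79–100 μM) 30 min at 37° C in Pipes pH 7.5 buffer (0.05 mM MgCl2, 40 mM KCl), then 20 μM ATP added for 60 min at 37° C. ADP quantified by ADP-Glo luminescence against ATP/ADP standard curve. Emax and EC50 from sigmoidal fit.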

Structure (SMILES)	EC50 [µM]	Emax [%]
COc1ccc(NC(=O)c2ncc(OC(F)F)cc2Cl)cc1S(=O)(=O)Nc1c(C)cccc1C [Compound 1127]	20 to 100	123 to 159
COc1ccc(NC(=O)c2ccc(Br)nc2F)cc1S(=O)(=O)Nc1c(C)cccc1C [Compound 1131]	20 to 100	123 to 159
COc1ccc(NC(=O)c2cn(C(C)C)cc2C(F)(F)F)cc1S(=O)(=O)Nc1c(C)cccc1C [Compound 1103]	< 10	160 to 199
CCc1nccc(C)c1NS(=O)(=O)c1cc(NC(=O)c2ncc(-c3ccccc3)o2)ccc1OC [Compound 1697]	20 to 100	123 to 159
COc1ccc(NC(=O)c2c[nH]c3cnccc23)cc1S(=O)(=O)Nc1c(C)cccc1C [Compound 1288]	20 to 100	160 to 199
COc1ccc(NC(=O)c2cc(C)cc(F)c2F)cc1S(=O)(=O)Nc1c(C)cccc1C [Compound 1164]	< 10	123 to 159
Cn1cnc2cc(C(=O)Nc3ccc(F)c(S(=O)(=O)Nc4ccc(Cl)cc4)c3)ccc2c1=O [Compound 1256]	20 to 100	123 to 159
COc1ccc(NC(=O)c2nc(C(C)C)cs2)cc1S(=O)(=O)Nc1c(C)cccc1C [Compound 1169]	< 10	160 to 199
COc1ccc(NC(=O)c2scc(C)c2Cl)cc1S(=O)(=O)Nc1c(C)cccc1C [Compound 1128]	< 10	160 to 199
COc1ccc(NC(=O)c2cc(-c3ccccc3)no2)cc1S(=O)(=O)Nc1c(C)cccc1C [Compound 1229]	< 10	160 to 199
COc1ccc(NC(=O)c2ncc(-c3ccccc3)o2)cc1S(=O)(=O)Nc1c(C)csc1C [Compound 1693]	< 10	160 to 199
COc1ccc(NC(=O)c2cccnc2-c2ccc(C)cc2)cc1S(=O)(=O)Nc1c(C)cccc1C [Compound 1045]	10 to 20	123 to 159
COc1ccc(NC(=O)c2ncc(-c3ccccc3)o2)cc1S(=O)(=O)Nc1sc2c(c1C#N)CCCC2 [Compound 1671]	10 to 20	160 to 199
CCOc1ccsc1C(=O)Nc1ccc(F)c(S(=O)(=O)Nc2ccc(Cl)cc2)c1 [Compound 765]	20 to 100	123 to 159
Cc1nc2cccc(C(=O)Nc3ccc(F)c(S(=O)(=O)Nc4ccc(Cl)cc4)c3)c2s1 [Compound 1268]	20 to 100	123 to 159
COc1ccc(NC(=O)c2ncoc2C(C)C)cc1S(=O)(=O)Nc1ccc(Cl)cc1 [Compound 2476]	10 to 20	123 to 159
COc1ccc(NC(=O)c2ccc3c(Br)nn(C)c3c2)cc1S(=O)(=O)Nc1c(C)cccc1C [Compound 1024]	< 10	200 to 300
COc1ccc(NC(=O)c2ccc3c(c2)n(C)c(=O)n3C)cc1S(=O)(=O)Nc1c(C)cccc1C [Compound 1146]	< 10	200 to 300
COc1ccc(NC(=O)c2cnccc2-c2ccccc2)cc1S(=O)(=O)Nc1c(C)cccc1C [Compound 1022]	20 to 100	200 to 300
COc1ccc(-c2noc(C)c2C(=O)Nc2ccc(F)c(S(=O)(=O)Nc3ccc(Cl)cc3)c2)cc1 [Compound 838]	10 to 20	123 to 159
COc1ccc(NC(=O)c2cccnc2SCc2ccccc2)cc1S(=O)(=O)Nc1c(C)cccc1C [Compound 1157]	< 10	123 to 159
COc1ccc(NC(=O)c2cnn(-c3cccnc3)c2)cc1S(=O)(=O)Nc1c(C)cccc1C [Compound 1106]	10 to 20	200 to 300
COc1ccc(NC(=O)c2ccc3ocnc3c2)cc1S(=O)(=O)Nc1c(C)cccc1C [Compound 1272]	20 to 100	123 to 159
COc1ccc(NC(=O)c2ncn(Cc3ccccc3)n2)cc1S(=O)(=O)Nc1c(C)cccc1C [Compound 1029]	10 to 20	> 300
O=C(Nc1ccc(F)c(S(=O)(=O)Nc2ccc(Cl)cc2)c1)c1cnccc1-c1ccccc1 [Compound 770]	20 to 100	160 to 199
Cc1nc2cc(C(=O)Nc3ccc(F)c(S(=O)(=O)Nc4ccc(Cl)cc4)c3)ccc2n1-c1ccccc1 [Compound 735]	< 10	123 to 159
CCc1ccc(NC(=O)c2cccc3ncn(C)c23)cc1S(=O)(=O)Nc1c(C)cccc1C [Compound 1353]	10 to 20	160 to 199
COc1ccc(NC(=O)c2cnc(Cl)s2)cc1S(=O)(=O)Nc1c(C)cccc1C [Compound 1070]	< 10	200 to 300

Structure (SMILES)	EC50 [µM]	Emax [%]
COc1ccc(NC(=O)c2cc(C3CC3)on2)cc1S(=O)(=O)Nc1c(C)cccc1C [Compound 1031]	10 to 20	200 to 300
COc1ccc(NC(=O)c2noc3c2CCCC3)cc1S(=O)(=O)Nc1c(C)cccc1C [Compound 1114]	10 to 20	200 to 300
COc1ccc(NC(=O)c2sc(Br)nc2C)cc1S(=O)(=O)Nc1c(C)cccc1C [Compound 1115]	10 to 20	200 to 300
COc1ccc(NC(=O)c2c(C(F)(F)F)ccnc2C)cc1S(=O)(=O)Nc1c(C)cccc1C [Compound 1153]	20 to 100	123 to 159
Cc1ncc(Br)cc1C(=O)Nc1ccc(F)c(S(=O)(=O)Nc2ccc(Cl)cc2)c1 [Compound 795]	10 to 20	160 to 199
COc1ccc(NC(=O)c2ccc(C(F)(F)F)n2C)cc1S(=O)(=O)Nc1c(C)cccc1C [Compound 1013]	< 10	123 to 159
COc1ccc(NC(=O)c2c(C)cc(Cl)nc2Cl)cc1S(=O)(=O)Nc1c(C)cccc1C [Compound 1037]	20 to 100	160 to 199
COc1ccc(NC(=O)c2ccc(F)c(-c3c(F)cccc3F)n2)cc1S(=O)(=O)Nc1c(C)cccc1C [Compound 1033]	< 10	160 to 199
COc1ccc(NC(=O)c2cnc(Cl)cc2Cl)cc1S(=O)(=O)Nc1c(C)cccc1C [Compound 1082]	20 to 100	200 to 300
COc1ccc(NC(=O)c2cccc([C@H](F)c3cccc(F)c3)c2)cc1S(=O)(=O)Nc1c(C)cccc1C [Compound 1034]	< 10	160 to 199
COc1ccc(NC(=O)c2cccc3ncsc23)cc1S(=O)(=O)Nc1c(C)cccc1C [Compound 1227]	10 to 20	200 to 300
Cc1cc(Cl)nc(Cl)c1C(=O)Nc1ccc(F)c(S(=O)(=O)Nc2ccc(Cl)cc2)c1 [Compound 691]	20 to 100	123 to 159
COc1ccc(NC(=O)c2nnc(-c3ccccc3)[nH]2)cc1S(=O)(=O)Nc1ccc(Cl)cc1 [Compound 586, N-(3-(N-(4-chlorophenyl)sulfamoyl)-4-methoxyphenyl)-5-phenyl-4H-1,2,4-triazole-3-carboxamide]	10 to 20	160 to 199
COc1ccc(NC(=O)c2csc(-c3cccs3)n2)cc1S(=O)(=O)Nc1c(C)cccc1C [Compound 1136]	< 10	160 to 199
COc1ccc(NC(=O)c2cn(C)c3ncccc23)cc1S(=O)(=O)Nc1ccc(Cl)cc1 [Compound 1345]	< 10	160 to 199
CCN1CCN(c2ccc(C(=O)Nc3ccc(OC)c(S(=O)(=O)Nc4c(C)cccc4C)c3)cc2)CC1 [Compound 1283]	20 to 100	123 to 159
COc1ccc(NC(=O)c2c(C)noc2-c2ccccc2)cc1S(=O)(=O)Nc1c(C)cccc1C [Compound 1244]	10 to 20	123 to 159
COc1ccc(NC(=O)c2ncc(-c3ccccc3)o2)cc1S(=O)(=O)Nc1c(C)ccnc1OC [Compound 1666]	10 to 20	123 to 159
COc1ccc(NC(=O)c2cc(C(C)C)on2)cc1S(=O)(=O)Nc1c(C)cccc1C [Compound 1032]	< 10	200 to 300
CCn1nc(C(C)C)cc1C(=O)Nc1ccc(OC)c(S(=O)(=O)Nc2c(C)cccc2C)c1 [Compound 1093]	< 10	200 to 300
CCc1ccnc(C(=O)Nc2ccc(OC)c(S(=O)(=O)Nc3c(C)cccc3C)c2)c1 [Compound 1151]	< 10	200 to 300
COc1ccc(NC(=O)c2nc3c(C)cccc3s2)cc1S(=O)(=O)Nc1c(C)cccc1C [Compound 1125]	< 10	160 to 199
COc1ccc(NC(=O)c2ccc(N3CCCC3)c(F)c2)cc1S(=O)(=O)Nc1c(C)cccc1C [Compound 1004]	< 10	160 to 199
COc1ccc(NC(=O)c2c[nH]c(-c3c(F)cccc3F)n2)cc1S(=O)(=O)Nc1ccc(Br)cc1 [Compound 1328]	< 10	160 to 199
COc1ccc(NC(=O)c2cccc(-n3nc(C)cc3C)c2)cc1S(=O)(=O)Nc1c(C)cccc1C [Compound 1249]	10 to 20	160 to 199
O=C(Nc1ccc(F)c(S(=O)(=O)Nc2ccc(Cl)cc2)c1)c1cccc(-c2cncnc2)c1 [Compound 690]	< 10	160 to 199
COc1ccc(NC(=O)c2c(-c3ccccc3)noc2C)cc1S(=O)(=O)Nc1c(C)cccc1C [Compound 1279]	< 10	200 to 300
